Assays:
[1] = test system: PC-3 prostate cancer cells; test: EDR anti-proliferation assay (3H-thymidine incorporation, soft agar) against PC-3 prostate cancer cells; assay type: cell-based; details: Homo sapiens; PC-3 cells in soft agar, five days incubation, 3H-TdR incorporation
Excerpt: The PC-3 cell line was maintained in RPMI supplemented with 10% fetal calf serum and antibiotics. […] Cells were suspended in 0.12% soft agar in complete medium and plated (2,000 cells per well, as determined by preliminary experiments) in different drug concentrations onto a 0.4% agarose underlayer in 24-well plates. Plating cells on agarose underlayers supports the proliferation only of the transformed cells, ensuring that the growth signal stems from the malignant component of the tumor.
All compounds were dissolved in DMSO to 200× stock solutions. Stock solutions were diluted to 20× working solutions using the tissue culture medium, serially diluted and added to the 24-well plates. […] No significant changes in pH of the culture medium were observed under the above conditions. Diluent control wells contained PC3 cells treated with DMSO, at the dilutions used for appropriate drug treatment. All experimental points were represented by two separate wells (duplicates). Positive controls were determined using at least two wells treated with an extremely high dose of cisplatin, an anti-cancer agent. Four wells containing tumor cells that were not treated with drugs served as negative controls in each experiment.
Cells were incubated with drugs under standard culture conditions for five days. Cultures were pulsed with tritiated thymidine (^3H-TdR, New Life Science Products, Boston, Mass.) at 5 μCi per well for the last 48 hours of the culture period. Cell culture plates were then heated to 90° C. to liquefy the agarose, and cells were harvested onto glass fiber filters, which were then placed into counting vials containing liquid scintillation fluid. The radioactivity trapped on the filters was counted with a Beckman scintillation counter. The fraction of surviving cells was determined by comparing ^3H-TdR incorporation in treated (experimental points) and untreated (negative control) wells. […] IC50 values were determined using the approximated sigmoidal curves and expressed as μM.

[2] = biological target: histone deacetylase isolated from rat liver; test: Histone deacetylase inhibition assay with fluorescent substrate MAL, HPLC determination; assay type: biochemical; details: 37° C. 90 minutes, IC50 from five dilutions, read-out: HDAC
Description: The inhibition of histone deacetylase was determined according to methods generally described by Hoffmann et al., Nucleic Acids Res. 27:2057-8 (1999). The histone deacetylase was isolated from rat liver as previously described by M. Tung. The compounds tested were initially dissolved in either ethanol or in DMSO to provide working stock solutions.
The assay was performed in a final volume of 120 μL total, consisting of 100 μL of 15 μM tris-HCl buffer (pH 7.9) also containing 0.25 μM EDTA, 10 μM NaCl, 10% glycerol, 10 μM mercaptoethanol and the enzyme. The assay was initiated upon the addition of 10 ml of one of the compounds being tested, followed by the addition of the fluorescence-labeled lysine substrate to each assay tube in an ice bath for 15 minutes. The tubes were transferred to a water bath at 37° C. for an additional 90 minutes.
The fluorescent substrate described by Hoffmann was modified to increase the precision and accuracy by the addition of an internal standard for the HPLC determination. The synthetic substrate, MAL is N-(4-methyl-7-coumarinyl)-N-α(tert-butyloxy-carbonyl)-N-Ω-acetyllysineamide.
An initial assay was performed to determine the range of activity of each compound. […] All values are the result of two or more experiments.

| SMILES | IC50 [1] [µM] | IC50 [2] [µM] |
| --- | --- | --- |
| CCC(=O)OCOC(=O)CC [POMP, propionoyloxymethyl propionate] | 30 | 590 |
| CCCC(=O)O [butyric acid] | > 2000 | 4500 |
| CC(/C=C/C(=O)NO)=C\[C@@H](C)C(=O)c1ccc(N(C)C)cc1 [trichostatin] | 0.005 | – |

— US6693132B2, “Methods for using alkanoyloxymethyl esters” (Beacon Laboratories, Inc., priority 2000, dated 2004)
